From PubChem BioAssay AID2060337 (Molecular Pharmacology Branch, DTP, NCI, 2025)

Test system: 832693-133-R-J1-PDC multi-cell spheroids, viability
Test: Anticancer human tumor 832693-133-R-J1-PDC patient-derived head and neck squamous carcinoma cell line growth inhibition [IpAb]
Conditions: for IC50: curve of first compound; for viability, T/C: stronger effect = lower value
In short: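 Spheroids of 60% malignant cells, 25% HUVEC and 15% MSC were exposed to targeted agents combined with ipatasertib or abemaciclib. Doses started at or near clinical Cmax (10 microM when unknown) and fell in half-log steps.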

[1] = second compound 0.1 µM, first compound 0.0316 µM
[2] = second compound 0.1 µM, first compound 0.1 µM
[3] = second compound 0.1 µM, first compound 0.316 µM
[4] = second compound 0.1 µM, first compound 1 µM
[5] = second compound 0.1 µM, first compound 3.16 µM
[6] = second compound 0.1 µM, first compound 10 µM
[7] = second compound 0.316 µM, first compound 0.0316 µM
[8] = second compound 0.316 µM, first compound 0.1 µM
[9] = second compound 0.316 µM, first compound 0.316 µM
[10] = second compound 0.316 µM, first compound 1 µM
[11] = second compound 0.316 µM, first compound 3.16 µM
[12] = second compound 0.316 µM, first compound 10 µM
[13] = second compound 1 µM, first compound 0.0316 µM
[14] = second compound 1 µM, first compound 0.1 µM
[15] = second compound 1 µM, first compound 0.316 µM
[16] = second compound 1 µM, first compound 1 µM
[17] = second compound 1 µM, first compound 3.16 µM
[18] = second compound 1 µM, first compound 10 µM
[19] = second compound 3.16 µM, first compound 0.0316 µM
[20] = second compound 3.16 µM, first compound 0.1 µM
[21] = second compound 3.16 µM, first compound 0.316 µM
[22] = second compound 3.16 µM, first compound 1 µM
[23] = second compound 3.16 µM, first compound 3.16 µM
[24] = second compound 3.16 µM, first compound 10 µM
[25] = second compound 10 µM, first compound 0.0316 µM
[26] = second compound 10 µM, first compound 0.1 µM
[27] = second compound 10 µM, first compound 0.316 µM
[28] = second compound 10 µM, first compound 1 µM
[29] = second compound 10 µM, first compound 3.16 µM
[30] = second compound 10 µM, first compound 10 µM
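Also: spheroids exposed to the drugs for one week before the viability readout.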
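For viability, T/C in this document: 100% = DMSO vehicle control wells.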

SMILES: C=CC(=O)N1CCN(c2nc(=O)n(-c3c(C)ccnc3C(C)C)c3nc(-c4c(O)cccc4F)c(F)cc23)C(C)C1 (stereo not given) + CC(C)NCC(C(=O)N1CCN(c2ncnc3c2C(C)CC3O)CC1)c1ccc(Cl)cc1
- IC50 (second compound 0.1 µM): > 10 µM
- IC50 (second compound 0.316 µM): 4.46 µM
- IC50 (second compound 1 µM): 0.237 µM
- IC50 (second compound 3.16 µM): 0.309 µM
- IC50 (second compound 10 µM): 3.74 µM
- viability, T/C [1]: 96.1%
- viability, T/C [2]: 91.6%
- viability, T/C [3]: 86%
- viability, T/C [4]: 92.2%
- viability, T/C [5]: 104%
- viability, T/C [6]: 77.3%
- viability, T/C [7]: 81.1%
- viability, T/C [8]: 75.3%
- viability, T/C [9]: 70.9%
- viability, T/C [10]: 67.2%
- viability, T/C [11]: 56.6%
- viability, T/C [12]: 36.6%
- viability, T/C [13]: 53.6%
- viability, T/C [14]: 55%
- viability, T/C [15]: 48.2%
- viability, T/C [16]: 41.8%
- viability, T/C [17]: 34.7%
- viability, T/C [18]: 18.8%
- viability, T/C [19]: 55.7%
- viability, T/C [20]: 52.4%
- viability, T/C [21]: 49.1%
- viability, T/C [22]: 43%
- viability, T/C [23]: 36.8%
- viability, T/C [24]: 17%
- viability, T/C [25]: 53.4%
- viability, T/C [26]: 69%
- viability, T/C [27]: 65.8%
- viability, T/C [28]: 57.3%
- viability, T/C [29]: 56%
- viability, T/C [30]: 18.4%

SMILES: CC(C)(C)c1cnc(CSc2cnc(NC(=O)C3CCNCC3)s2)o1 + CC(C)NCC(C(=O)N1CCN(c2ncnc3c2C(C)CC3O)CC1)c1ccc(Cl)cc1
- IC50 (second compound 0.1 µM): 0.219 µM
- IC50 (second compound 0.316 µM): 0.189 µM
- IC50 (second compound 1 µM): 0.137 µM
- IC50 (second compound 3.16 µM): 0.133 µM
- IC50 (second compound 10 µM): 0.158 µM
- viability, T/C (second compound 0.1 µM, first compound 0.00949 µM): 101%
- viability, T/C (second compound 0.1 µM, first compound 0.03 µM): 122%
- viability, T/C (second compound 0.1 µM, first compound 0.0949 µM): 146%
- viability, T/C (second compound 0.1 µM, first compound 0.3 µM): 22.2%
- viability, T/C (second compound 0.1 µM, first compound 0.949 µM): 1.14%
- viability, T/C (second compound 0.1 µM, first compound 3 µM): 1.67%
- viability, T/C (second compound 0.316 µM, first compound 0.00949 µM): 92.5%
- viability, T/C (second compound 0.316 µM, first compound 0.03 µM): 94.2%
- viability, T/C (second compound 0.316 µM, first compound 0.0949 µM): 113%
- viability, T/C (second compound 0.316 µM, first compound 0.3 µM): 16.5%
- viability, T/C (second compound 0.316 µM, first compound 0.949 µM): 0.85%
- viability, T/C (second compound 0.316 µM, first compound 3 µM): 1.58%
- viability, T/C (second compound 1 µM, first compound 0.00949 µM): 67.7%
- viability, T/C (second compound 1 µM, first compound 0.03 µM): 70.7%
- viability, T/C (second compound 1 µM, first compound 0.0949 µM): 75.6%
- viability, T/C (second compound 1 µM, first compound 0.3 µM): 4.32%
- viability, T/C (second compound 1 µM, first compound 0.949 µM): 1.17%
- viability, T/C (second compound 1 µM, first compound 3 µM): 1.18%
- viability, T/C (second compound 3.16 µM, first compound 0.00949 µM): 60%
- viability, T/C (second compound 3.16 µM, first compound 0.03 µM): 68%
- viability, T/C (second compound 3.16 µM, first compound 0.0949 µM): 81.9%
- viability, T/C (second compound 3.16 µM, first compound 0.3 µM): 1.46%
- viability, T/C (second compound 3.16 µM, first compound 0.949 µM): 1.05%
- viability, T/C (second compound 3.16 µM, first compound 3 µM): 1.4%
- viability, T/C (second compound 10 µM, first compound 0.00949 µM): 75%
- viability, T/C (second compound 10 µM, first compound 0.03 µM): 83.4%
- viability, T/C (second compound 10 µM, first compound 0.0949 µM): 108%
- viability, T/C (second compound 10 µM, first compound 0.3 µM): 0.9%
- viability, T/C (second compound 10 µM, first compound 0.949 µM): 1.13%
- viability, T/C (second compound 10 µM, first compound 3 µM): 1.37%

SMILES: Cn1ncc(Cl)c1-c1cc(C(=O)NC(CN)Cc2cccc(F)c2)sc1Cl (stereo not given) + CC(C)NCC(C(=O)N1CCN(c2ncnc3c2C(C)CC3O)CC1)c1ccc(Cl)cc1
- IC50 (second compound 0.1 µM): 4.96 µM
- IC50 (second compound 0.316 µM): 4.8 µM
- IC50 (second compound 1 µM): 3.75 µM
- IC50 (second compound 3.16 µM): 4.14 µM
- IC50 (second compound 10 µM): 2.63 µM
- viability, T/C [1]: 94.7%
- viability, T/C [2]: 87.5%
- viability, T/C [3]: 75.5%
- viability, T/C [4]: 61.1%
- viability, T/C [5]: 90.1%
- viability, T/C [6]: 0.23%
- viability, T/C [7]: 82.7%
- viability, T/C [8]: 73.1%
- viability, T/C [9]: 79.9%
- viability, T/C [10]: 63.2%
- viability, T/C [11]: 92.3%
- viability, T/C [12]: 0.22%
- viability, T/C [13]: 47.9%
- viability, T/C [14]: 59.8%
- viability, T/C [15]: 54.6%
- viability, T/C [16]: 56.6%
- viability, T/C [17]: 74.3%
- viability, T/C [18]: 0.2%
- viability, T/C [19]: 50.1%
- viability, T/C [20]: 59.1%
- viability, T/C [21]: 66.1%
- viability, T/C [22]: 70.3%
- viability, T/C [23]: 80.8%
- viability, T/C [24]: 0.2%
- viability, T/C [25]: 67.2%
- viability, T/C [26]: 73%
- viability, T/C [27]: 69.5%
- viability, T/C [28]: 73.8%
- viability, T/C [29]: 46.1%
- viability, T/C [30]: 0.24%

SMILES: Cn1nccc1Nc1nccc(-c2ccn(C(CO)c3ccc(Cl)c(F)c3)c(=O)c2)n1 (stereo not given) + CC(C)NCC(C(=O)N1CCN(c2ncnc3c2C(C)CC3O)CC1)c1ccc(Cl)cc1
- IC50 (second compound 0.1 µM): 0.383 µM
- IC50 (second compound 0.316 µM): 0.0874 µM
- IC50 (second compound 1 µM): 0.0371 µM
- IC50 (second compound 3.16 µM): 0.0468 µM
- IC50 (second compound 10 µM): 0.326 µM
- viability, T/C [1]: 90.9%
- viability, T/C [2]: 64.3%
- viability, T/C [3]: 55.9%
- viability, T/C [4]: 41.2%
- viability, T/C [5]: 23.1%
- viability, T/C [6]: 21.5%
- viability, T/C [7]: 60.1%
- viability, T/C [8]: 50%
- viability, T/C [9]: 35.2%
- viability, T/C [10]: 27.8%
- viability, T/C [11]: 19.7%
- viability, T/C [12]: 11.2%
- viability, T/C [13]: 50.7%
- viability, T/C [14]: 43.2%
- viability, T/C [15]: 26.6%
- viability, T/C [16]: 20.9%
- viability, T/C [17]: 14%
- viability, T/C [18]: 7.18%
- viability, T/C [19]: 51.5%
- viability, T/C [20]: 47.3%
- viability, T/C [21]: 30.6%
- viability, T/C [22]: 19.9%
- viability, T/C [23]: 12.6%
- viability, T/C [24]: 8.87%
- viability, T/C [25]: 56.3%
- viability, T/C [26]: 59.6%
- viability, T/C [27]: 50.9%
- viability, T/C [28]: 28.7%
- viability, T/C [29]: 17.9%
- viability, T/C [30]: 10.5%

SMILES: Cn1ncnc1[C@H]1c2n[nH]c(=O)c3cc(F)cc(c23)N[C@@H]1c1ccc(F)cc1 + CC(C)NCC(C(=O)N1CCN(c2ncnc3c2C(C)CC3O)CC1)c1ccc(Cl)cc1
- IC50 (second compound 0.1 µM): > 0.1 µM
- IC50 (second compound 0.316 µM): > 0.1 µM
- IC50 (second compound 1 µM): 0.0047 µM
- IC50 (second compound 3.16 µM): 0.00816 µM
- IC50 (second compound 10 µM): > 0.1 µM
- viability, T/C (second compound 0.1 µM, first compound 0.000316 µM): 96%
- viability, T/C (second compound 0.1 µM, first compound 0.001 µM): 94%
- viability, T/C (second compound 0.1 µM, first compound 0.00316 µM): 74.7%
- viability, T/C (second compound 0.1 µM, first compound 0.01 µM): 80.7%
- viability, T/C [1]: 85.6%
- viability, T/C [2]: 72.4%
- viability, T/C (second compound 0.316 µM, first compound 0.000316 µM): 77.8%
- viability, T/C (second compound 0.316 µM, first compound 0.001 µM): 87.5%
- viability, T/C (second compound 0.316 µM, first compound 0.00316 µM): 69.2%
- viability, T/C (second compound 0.316 µM, first compound 0.01 µM): 61.1%
- viability, T/C [7]: 65.3%
- viability, T/C [8]: 52.9%
- viability, T/C (second compound 1 µM, first compound 0.000316 µM): 59.5%
- viability, T/C (second compound 1 µM, first compound 0.001 µM): 56.8%
- viability, T/C (second compound 1 µM, first compound 0.00316 µM): 49.3%
- viability, T/C (second compound 1 µM, first compound 0.01 µM): 48%
- viability, T/C [13]: 42.7%
- viability, T/C [14]: 35.9%
- viability, T/C (second compound 3.16 µM, first compound 0.000316 µM): 57.9%
- viability, T/C (second compound 3.16 µM, first compound 0.001 µM): 61%
- viability, T/C (second compound 3.16 µM, first compound 0.00316 µM): 56.1%
- viability, T/C (second compound 3.16 µM, first compound 0.01 µM): 46.5%
- viability, T/C [19]: 41.7%
- viability, T/C [20]: 36.2%
- viability, T/C (second compound 10 µM, first compound 0.000316 µM): 83.5%
- viability, T/C (second compound 10 µM, first compound 0.001 µM): 69.4%
- viability, T/C (second compound 10 µM, first compound 0.00316 µM): 65%
- viability, T/C (second compound 10 µM, first compound 0.01 µM): 62.6%
- viability, T/C [25]: 63.2%
- viability, T/C [26]: 47.8%
